The values below come from patent US12617779B2, “Self degradation-type CDK9 inhibitor prodrug and liposome encapsulating same” (Sumitomo Pharma Co., Ltd., priority 2021, dated 2026).

A short description of the data set: Liposome encapsulation test, remote loading method (Experimental Example 4).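 On Encapsulation efficiency: encapsulated compound as percent of compound amount introduced.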 The format is physicochemical. Particulars: Compound concentration when encapsulated 10 mg/mL. On the procedure:
For Example 1, Example 2, Example 3, Example 4, Example 5, Example 6, Example 7, Example 8, Example 9, Example 10, Example 11, Example 12, Example 13, Example 14, Example 15, Example 16, Example 17 and Alvocidib, an encapsulation test in liposomes was performed using a remote loading method.
<Liposome Encapsulation Test of Example 1, Example 2, Example 5, Example 6, Example 9, Example 10, Example 11, Example 12, Example 13, Example 14, Example 15, and Example 16>
Hydrogenated soybean phosphatidylcholine (COATSOME NC-21E, manufactured by NOF CORPORATION, 7.77 g), cholesterol (manufactured by Sigma, 2.78 g) and distearoylphosphatidylethanolamine-methoxypolyethylene glycol 2000 (SUNBRIGHT DSPE-020CN, manufactured by NOF CORPORATION, 2.47 g) were dissolved in tert-butyl alcohol (720 mL) warmed to 65° C. The solution was placed in an eggplant flask and frozen in a dry ice-acetone bath, and then the tert-butyl alcohol was removed by evaporation under reduced pressure to give a lipid mixture.
To the above lipid mixture was added a 250 mM ammonium sulfate solution (240 mL), and the mixture was warmed to 65° C., and dispersed by a homogenizer (ULTRA-TURRAX, manufactured by IKA) to give a crude liposome dispersion. Then, the crude liposome dispersion was dispersed by a high pressure homogenizer (Nano-Mizer NM2, manufactured by YOSHIDA KIKAI CO., LTD.) at a pressure of 100 MPa to give liposomes with an average particle size (Z-average) of about 80 nm. The liposome outer solution was replaced with 10 mM L-histidine/10% sucrose solution (pH 6.5) using a dialysis cassette (Slide-A-Lyzer G2 Dialysis Cassettes 20K MWCO, manufactured by Thermo Scientific) to give an empty liposome solution. The solution was filtered through a 0.22 μm membrane filter, and a 10 mM L-histidine/10% sucrose solution (pH 6.5) was added thereto to adjust the total lipid concentration to 50 mM (50 μmol/mL). The lipid concentration was determined by quantitatively analyzing cholesterol using HPLC and calculating the total lipid concentration from the lipid mixing ratio. The amount for the above adjustment was increased or decreased as appropriate.
The compound (10 mg) was weighed, and the empty liposome solution (1 mL) with a total lipid concentration of 50 mM was added thereto. The solution was adjusted to pH 5 to 6 with 1 mol/L hydrochloric acid or 1 mol/L aqueous sodium hydroxide solution as necessary, warmed in a 65° C. water bath for 2 to 3 minutes, and ice-cooled. The mixture was centrifuged at 15,000×g for 5 minutes to precipitate and remove insoluble substances.
The liposome solution (100 μL) after removing insoluble substances was taken on an ultrafiltration filter (Amicon Ultra, 100K, 0.5 mL, manufactured by Merck) and centrifuged at 4° C., 15,000×g for 10 minutes. The compound concentrations in the liposome solution after removing insoluble substances and in the filtrate after ultrafiltration were determined by HPLC, and the encapsulation rate, encapsulation efficiency, and encapsulated compound content per 50 μmol of lipid were calculated by the following formula.
The measurement conditions for HPLC are as follows.
An empty liposome solution with a total lipid concentration of 75 mM was prepared by the same procedure as for the above example compound group. Each compound was weighed, and the empty liposome solution with a total lipid concentration of 75 mM was added thereto such that the compound concentration became 15 mg/mL. The solution was adjusted to pH 5 to 6 with 1 mol/L hydrochloric acid or 1 mol/L aqueous sodium hydroxide solution, warmed in a 65° C. water bath for 3 minutes, and ice-cooled. Hereafter, the encapsulation rate and encapsulation efficiency were calculated by the same procedure as for the above example compound group. The encapsulated compound content per 50 μmol of lipid was calculated by the following formula.
[formula] <Liposome Encapsulation Test of Example 7, Example 8 and Example 17> […]

Turning to `CN1CC[C@H](c2c(OC(=O)N(CCCC(F)(F)F)CC3CCCCN3)cc(O)c3c(=O)cc(-c4ccccc4Cl)oc23)[C@H](O)C1` (stereo partly drawn) [Example 14, 2-(2-chlorophenyl)-5-hydroxy-8-[(3S,4R)-3-hydroxy-1-methylpiperidin-4-yl]-4-oxo-4H-1-benzopyran-7-yl [(piperidin-2-yl)methyl](4,4,4-trifluorobutyl)carbamate], the “Encapsulated compound content per 50 μmol of lipid” value is reported as 2.8 mg, the Encapsulation efficiency amounted to 28.4% and the Encapsulation rate is listed as 26.6%.
Regarding `CN1CC[C@H](c2c(OC(=O)N(Cc3ccccc3)CC3CCCCN3)cc(O)c3c(=O)cc(-c4ccccc4Cl)oc23)[C@H](O)C1` (stereo partly drawn) [Example 15, 2-(2-chlorophenyl)-5-hydroxy-8-[(3S,4R)-3-hydroxy-1-methylpiperidin-4-yl]-4-oxo-4H-1-benzopyran-7-yl benzyl [(piperidin-2-yl)methyl]carbamate], the “Encapsulated compound content per 50 μmol of lipid” value stood at 2.2 mg, the Encapsulation efficiency is given as 22.2% and the Encapsulation rate is reported as 23.6%.
`CCN(CCC1CCCCN1)C(=O)Oc1cc(O)c2c(=O)cc(-c3ccccc3Cl)oc2c1[C@H]1CCN(C)C[C@H]1O` (stereo partly drawn) [Example 16, 2-(2-chlorophenyl)-5-hydroxy-8-[(3S,4R)-3-hydroxy-1-methylpiperidin-4-yl]-4-oxo-4H-1-benzopyran-7-yl ethyl[2-(piperidin-2-yl)ethyl]carbamate]: the “Encapsulated compound content per 50 μmol of lipid” value was 2.2 mg, the Encapsulation efficiency is recorded as 21.7% and the Encapsulation rate was 20.7%.
